Measured values as given in ChEMBL document CHEMBL6096738, “Optimization of Single Relaxin B-Chain Peptide Leads to the Identification of R2R01, a Potent, Long-Acting RXFP1 Agonist for Cardiovascular and Renal Diseases” (J Med Chem, 2025).
Starred links: 1 amine or outer side, 2 acyl side, 3 side chain; linkers in the order of their positions; H or OH if unused. Non-standard residues stand in square brackets, D forms with d. Residues, ends and D or L forms follow the SMILES beside them. Groups on a side chain read outwards from the residue. *: point of attachment. X3 = CCCCCCCCCCCCCCCCCC(=O)N[C@@H](CCC(=O)N[C@@H](CCC(=O)N[C@@H](CCC(=O)NCCCOCCOCCOCCCNC(=O)CCC(=O)NCCCOCCOCCOCCCNC(=O)CCC(=O)NCCCOCCOCCOCCCN*)C(=O)O)C(=O)O)C(=O)O; γGlu = O=C(O)[C@H](CCC(=O)[*:2])N[*:1]; Palmitoyl = CCCCCCCCCCCCCCCC(=O)*; Suc = O=C(CCC(=O)[*:2])[*:1]; Nle = CCCC[C@H](N)C(=O)O; AEEA = NCCOCCOCC(=O)O; Aib = CC(C)(N)C(=O)O

Legend:
[1] = Induction of mast cell degranulation in human LAD2 cells assessed as beta-hexosaminidase release by measuring 4-methylumbelliferyl N-acetyl-beta-D-glucosaminide hydrolysis incubated for 30 mins by plate reader analysis; format: toxicity, cell-based; conditions: probe 4-methylumbelliferyl N-acetyl-beta-D-glucosaminide
[2] = target: T1, Relaxin receptor 1 (Homo sapiens, UniProt Q9HBX9); test: Agonist activity at human RXFP1 expressed in human OVCAR-5 cells assessed as intracellular cAMP accumulation incubated for 30 mins by HTRF assay; format: functional, cell-based
T1 sequence (Q9HBX9 whole entry): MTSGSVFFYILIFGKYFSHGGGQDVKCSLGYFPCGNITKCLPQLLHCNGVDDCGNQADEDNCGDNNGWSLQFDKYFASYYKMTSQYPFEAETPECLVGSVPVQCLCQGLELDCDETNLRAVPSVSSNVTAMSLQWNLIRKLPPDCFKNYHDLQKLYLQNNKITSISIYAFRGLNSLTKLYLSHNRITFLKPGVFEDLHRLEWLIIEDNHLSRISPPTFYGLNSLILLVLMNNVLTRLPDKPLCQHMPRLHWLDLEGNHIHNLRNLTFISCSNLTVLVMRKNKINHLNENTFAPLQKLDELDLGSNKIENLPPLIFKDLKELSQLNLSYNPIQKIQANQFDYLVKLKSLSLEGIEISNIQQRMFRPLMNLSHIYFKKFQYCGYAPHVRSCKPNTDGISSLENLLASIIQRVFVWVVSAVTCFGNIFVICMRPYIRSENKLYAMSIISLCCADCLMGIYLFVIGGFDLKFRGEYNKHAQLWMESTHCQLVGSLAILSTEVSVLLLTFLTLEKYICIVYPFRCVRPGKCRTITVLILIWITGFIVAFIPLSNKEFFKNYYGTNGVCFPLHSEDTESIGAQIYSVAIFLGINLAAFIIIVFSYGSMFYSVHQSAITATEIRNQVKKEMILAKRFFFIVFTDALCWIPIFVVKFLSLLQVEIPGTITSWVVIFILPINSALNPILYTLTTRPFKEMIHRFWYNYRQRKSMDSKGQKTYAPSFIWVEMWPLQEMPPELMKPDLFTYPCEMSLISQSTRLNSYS

[3] = target: T2, Relaxin receptor 1 (Homo sapiens) (UniProt Q9HBX9); test: Agonist activity at human RXFP1 expressed in 2%HSA treated human OVCAR-5 cells assessed as intracellular cAMP accumulation by measuring maximal efficacy incubated for 30 mins with 2% HSA pretreated compound by HTRF assay relative to control; format: functional, cell-based; conditions: filed as agonist
T2 sequence (whole entry): T1 sequence (Q9HBX9 whole entry)

[4] = Induction of mast cell degranulation in human LAD2 cells assessed as beta-hexosaminidase release by measuring maximal efficacy of 4-methylumbelliferyl N-acetyl-beta-D-glucosaminide hydrolysis at 10 uM incubated for 30 mins by plate reader analysis relative to control; format: toxicity, cell-based; conditions: probe 4-methylumbelliferyl N-acetyl-beta-D-glucosaminide
[5] = target: T1, Relaxin receptor 1; test: Agonist activity at human RXFP1 expressed in 2%HSA treated human OVCAR-5 cells assessed as intracellular cAMP accumulation incubated for 30 mins with 2% HSA pretreated compound by HTRF assay; format: functional, cell-based
[6] = target: T2, Relaxin receptor 1 (Homo sapiens); test: Agonist activity at human RXFP1 expressed in human OVCAR-5 cells assessed as intracellular cAMP accumulation by measuring maximal efficacy incubated for 30 mins by HTRF assay relative to control; format: functional, cell-based; conditions: filed as agonist
[7] = Half-life in male Sprague-Dawley rat at 1 mg/kg, iv measured after 198 hrs by LC-HRMS analysis; format: ADME, organism-based; conditions: in vivo
[8] = Half-life in male Beagle dog at 1 mg/kg, iv measured after 198 hrs by LC-HRMS analysis; format: ADME, organism-based, Canis lupus familiaris; conditions: in vivo
[9] = Drug metabolism in male Sprague-Dawley rat assessed as fatty acid chain oxidation mediated M+16 metabolite formation by measuring metabolite to parent compound AUC ratio at 3 mg/kg, sc measured after 198 hrs by LC-HRMS analysis; format: ADME, organism-based; conditions: in vivo
[10] = Drug metabolism in male Beagle dog assessed as fatty acid chain oxidation mediated M+16 metabolite formation by measuring metabolite to parent compound AUC ratio at 1 mg/kg, iv measured after 198 hrs by LC-HRMS analysis; format: ADME, organism-based, Canis lupus familiaris; conditions: in vivo
[11] = Half-life in female Gottingen pig at 1 mg/kg, iv measured after 198 hrs by LC-HRMS analysis; format: ADME, organism-based, Sus scrofa; conditions: in vivo
[12] = Drug metabolism in female Gottingen pig assessed as fatty acid chain oxidation mediated M+16 metabolite formation by measuring metabolite to parent compound AUC ratio at 1 mg/kg, iv measured after 198 hrs by LC-HRMS analysis; format: ADME, organism-based, Sus scrofa; conditions: in vivo
[13] = Induction of mast cell degranulation in human LAD2 cells assessed as beta-hexosaminidase release by measuring maximal efficacy of 4-methylumbelliferyl N-acetyl-beta-D-glucosaminide hydrolysis at 33 uM incubated for 30 mins by plate reader analysis relative to control; format: toxicity, cell-based; conditions: probe 4-methylumbelliferyl N-acetyl-beta-D-glucosaminide

Row | EC50 [2] | Emax [3] | EC50 [5] | Emax [6] | half-life [7] | half-life [8] | Ratio AUC [9] | Ratio AUC [10] | half-life [11] | Ratio AUC [12] | Compound | EC50 at 30 min [1] | Emax at 0.5 h, 10 µM [4] | Emax at 0.5 h, 33 µM [13]
1 | 0.2 nM | 97% | 10.8 nM | 96% | 5.13 h |  |  |  |  |  | CCCCCCCCCCCCCCCCCC(=O)N[C@@H](CCC(=O)N[C@@H](CCC(=O)N[C@@H](CCC(=O)NCCCOCCOCCOCCCNC(=O)CCC(=O)NCCCOCCOCCOCCCNC(=O)CCC(=O)NCCCOCCOCCOCCCNC(=O)CCC(=O)NCCCC[C@H](NC(=O)CNC(=O)[C@H](CCC(=O)O)NC(=O)C(C)(C)NC(=O)C(C)(C)NC(=O)[C@@H](NC(=O)[C@H](CCCCNC(C)=O)NC(=O)[C@H](C)NC(=O)[C@H](CCCNC(=N)N)NC(=O)[C@@H](NC(=O)[C@H](CCCCN)NC(=O)[C@H](CCC(=O)O)NC(=O)[C@H](CCCNC(=N)N)NC(=O)CNC(=O)[C@H](CCC(=O)O)NC(=O)[C@H](CC(C)C)NC(C)=O)C(C)C)[C@@H](C)CC)C(=O)N[C@@H](CO)C(=O)N[C@H](C(=O)N[C@@H](Cc1c[nH]c2ccccc12)C(=O)N[C@@H](CO)C(=O)NC(C)(C)C(=O)N[C@@H](CCCNC(=N)N)C(=O)N[C@@H](CCCCN)C(=O)N[C@@H](CCCCNC(C)=O)C(N)=O)[C@@H](C)O)C(=O)O)C(=O)O)C(=O)O (Ac-LEGREKVRAK(Ac)I[Aib][Aib]EGK([Suc-X3])STWS[Aib]RKK(Ac)-NH2) | 6430 nM | 70% | 
2 | 1 nM | 96% | 87 nM | 80% | 5.7 h | 4.4 h | 0.025 | 0.99 | 12.9 h | 0.7 | CCCCCCCCCCCCCCCC(=O)N[C@@H](CCC(=O)N[C@@H](CCC(=O)N[C@@H](CCC(=O)NCCOCCOCC(=O)NCCOCCOCC(=O)NCCOCCOCC(=O)NCCCC[C@H](NC(=O)[C@H](CCCCNC(C)=O)NC(=O)[C@H](CCCCN)NC(=O)[C@H](CCCNC(=N)N)NC(=O)C(C)(C)NC(=O)[C@H](CO)NC(=O)[C@H](Cc1c[nH]c2ccccc12)NC(=O)[C@@H](NC(=O)[C@H](CO)NC(=O)[C@H](CCCC)NC(=O)CNC(=O)[C@H](CCC(=O)O)NC(=O)C(C)(C)NC(=O)C(C)(C)NC(=O)[C@@H](NC(=O)[C@H](CCCCNC(C)=O)NC(=O)[C@H](C)NC(=O)[C@H](CCCNC(=N)N)NC(=O)[C@@H](NC(=O)[C@H](CCCCN)NC(=O)[C@H](CCC(=O)O)NC(=O)[C@H](CCCNC(=N)N)NC(=O)CNC(=O)[C@H](CCC(=O)O)NC(=O)[C@H](CC(C)C)NC(C)=O)C(C)C)[C@@H](C)CC)[C@@H](C)O)C(N)=O)C(=O)O)C(=O)O)C(=O)O (Ac-LEGREKVRAK(Ac)I[Aib][Aib]EG[Nle]STWS[Aib]RKK(Ac)K([AEEA-AEEA-AEEA-γGlu-γGlu-γGlu-Palmitoyl])-NH2) | 3900 nM |  | 67.2%
3 | 6.2 nM | 73% | 132 nM | 78% |  |  |  |  |  |  | CCCCCCCCCCCCCCCC(=O)N[C@@H](CCC(=O)N[C@@H](CCC(=O)N[C@@H](CCC(=O)NC(=O)CCOCCOCCOCCOCCOCCOCCOCCOCCOCCOCCOCCOCCNCCCC[C@H](NC(=O)[C@H](C)NC(=O)[C@H](CCCNC(=N)N)NC(=O)[C@@H](NC(=O)[C@H](CCCCN)NC(=O)[C@H](CCC(=O)O)NC(=O)[C@H](CCCNC(=N)N)NC(=O)CNC(=O)[C@H](CCC(=O)O)NC(=O)[C@H](CC(C)C)NC(C)=O)C(C)C)C(=O)N[C@H](C(=O)NC(C)(C)C(=O)NC(C)(C)C(=O)N[C@@H](CCC(=O)O)C(=O)NCC(=O)N[C@@H](CCCC)C(=O)N[C@@H](CO)C(=O)N[C@H](C(=O)N[C@@H](Cc1c[nH]c2ccccc12)C(=O)N[C@@H](CO)C(=O)NC(C)(C)C(=O)N[C@@H](CCCNC(=N)N)C(=O)N[C@@H](CCCCN)C(=O)N[C@@H](CCCCNC(C)=O)C(N)=O)[C@@H](C)O)[C@@H](C)CC)C(=O)O)C(=O)O)C(=O)O | 2420 nM | 59.7% | 
